This is an account of results in patent US11434246B2, “EP4 antagonists” (Eisai R&D Management Co., Ltd., priority 2015, dated 2022).

The experiment deals with EP4 (Homo sapiens, UniProt P35408). Kind of experiment: EP4 Antagonism by CRE-PLAP Reporter Assay (SE302 cells, PGE2-stimulated). The conditions noted are these: SE302 (HEK293) cells, 3 ng/mL PGE2, overnight; single or multiple assay average values. Details: HEK293 cells express endogenous EP4; endogenous in cells; host or cells: SE302 (HEK293 clone with CRE-PLAP reporter). The experiment is classed as cell-based. The gist of the method: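 HEK293-derived SE302 cells with endogenous EP4 and CRE-driven secreted PLAP, in serum-free medium with 0.1% BSA, stimulated overnight with 3 ng/mL PGE2 plus compound. Supernatant PLAP read by luminescence (pH 11 carbonate buffer, 2 h). IC50 from % of control, normalized to DMSO with and without PGE2.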
EP4, sequence (P35408 whole entry): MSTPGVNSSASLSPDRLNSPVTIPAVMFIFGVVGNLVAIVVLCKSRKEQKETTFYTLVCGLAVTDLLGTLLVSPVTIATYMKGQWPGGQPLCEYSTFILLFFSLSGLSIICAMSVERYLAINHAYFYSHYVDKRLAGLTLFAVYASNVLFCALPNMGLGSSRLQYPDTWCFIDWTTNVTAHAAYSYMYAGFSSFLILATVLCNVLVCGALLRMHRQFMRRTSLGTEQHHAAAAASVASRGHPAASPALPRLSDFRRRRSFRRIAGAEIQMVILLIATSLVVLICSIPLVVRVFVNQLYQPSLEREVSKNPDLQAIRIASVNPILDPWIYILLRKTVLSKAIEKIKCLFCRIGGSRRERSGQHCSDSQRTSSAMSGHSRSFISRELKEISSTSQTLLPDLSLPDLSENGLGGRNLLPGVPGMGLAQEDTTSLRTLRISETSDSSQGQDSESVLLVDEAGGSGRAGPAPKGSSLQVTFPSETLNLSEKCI

For `C[C@H](NC(=O)c1c(C(F)(F)F)nn2c1N(Cc1ccc(C(F)(F)F)cc1)CC2)c1ccc(C2CC2)cc1` [Compound 57, (S)—N-(1-(4-cyclopropylphenyl)ethyl)-6-(trifluoromethyl)-1-(4-(trifluoromethyl)benzyl)-2,3-dihydro-1H-imidazo[1,2-b]pyrazole-7-carboxamide], the IC50 is 310 nM.

Take `Cc1cc([C@H](C)NC(=O)c2c(C(F)(F)F)nn3c2N(Cc2ccc(C(F)(F)F)cc2)CC3)ccc1-c1nn[nH]n1` [Compound 58, (S)—N-(1-(3-methyl-4-(2H-tetrazol-5-yl)phenyl)ethyl)-6-(trifluoromethyl)-1-(4-(trifluoromethyl)benzyl)-2,3-dihydro-1H-imidazo[1,2-b]pyrazole-7-carboxamide]: the IC50 worked out at 4.71 nM. This IC50 lies about 66-fold lower than the previous one. The same measure for `CCc1nn2c(c1C(=O)N[C@@H](C)c1ccc(C(=O)O)cc1)N(Cc1cccc(C(F)(F)F)c1)CC2` [Compound 59, (S)-4-(1-(6-ethyl-1-(3-(trifluoromethyl)benzyl)-2,3-dihydro-1H-imidazo[1,2-b]pyrazole-7-carboxamido)ethyl)benzoic acid]: 0.68 nM; for `C[C@H](NC(=O)c1c(-c2ccccc2)nn2c1N(Cc1cccc(C(F)(F)F)c1)CC2)c1ccc(C(=O)O)cc1` [Compound 60, (S)-4-(1-(6-phenyl-1-(3-(trifluoromethyl)benzyl)-2,3-dihydro-1H-imidazo[1,2-b]pyrazole-7-carboxamido)ethyl)benzoic Acid]: 7.65 nM; for `C[C@H](NC(=O)c1c(C(F)(F)F)nn2c1N(Cc1ccccc1Cl)CCC2)c1ccc(C(=O)O)cc1` [Compound 61, (S)-4-(1-(4-(2-chlorobenzyl)-2-(trifluoromethyl)-4,5,6,7-tetrahydropyrazolo[1,5-a]pyrimidine-3-carboxamido)ethyl)benzoic Acid]: 100 nM. The same measure for `CSc1cc(CN2CCn3nc(C(F)(F)F)c(C(=O)N[C@@H](C)c4ccc(C(=O)O)cc4)c32)cc(C(F)(F)F)c1` [Compound 62, (S)-4-(1-(1-(3-(methylthio)-5-(trifluoromethyl)benzyl)-6-(trifluoromethyl)-2,3-dihydro-1H-imidazo[1,2-b]pyrazole-7-carboxamido)ethyl)benzoic Acid]: 0.57 nM; for `C[C@H](NC(=O)c1c(C(F)(F)F)nn2c1N(Cc1ccc(Cl)c(C(F)(F)F)c1)CC2)c1ccc(C(=O)O)cc1` [Compound 63, (S)-4-(1-(1-(4-chloro-3-(trifluoromethyl)benzyl)-6-(trifluoromethyl)-2,3-dihydro-1H-imidazo[1,2-b]pyrazole-7-carboxamido)ethyl)benzoic acid]: 1.3 nM. `C[C@H](NC(=O)c1c(C(F)(F)F)nn2c1N(Cc1cccc(CO)c1)CC2)c1ccc(C(=O)O)cc1` [Compound 64, (S)-4-(1-(1-(3-(hydroxymethyl)benzyl)-6-(trifluoromethyl)-2,3-dihydro-1H-imidazo[1,2-b]pyrazole-7-carboxamido)ethyl)benzoic acid] had an IC50 of 0.82 nM. The same measure for `C[C@H](NC(=O)c1c(C(F)(F)F)nn2c1N(Cc1cccc(CCl)c1)CC2)c1ccc(C(=O)O)cc1` [Compound 65, (S)-4-(1-(1-(3-(chloromethyl)benzyl)-6-(trifluoromethyl)-2,3-dihydro-1H-imidazo[1,2-b]pyrazole-7-carboxamido)ethyl)benzoic acid]: 0.93 nM; for `C[C@H](NC(=O)c1c(C(F)(F)F)nn2c1N(Cc1cccc(CN3CCn4nc(C(F)(F)F)c(C(=O)N[C@@H](C)c5ccc(C(=O)O)cc5)c43)c1)CC2)c1ccc(C(=O)O)cc1` [Compound 66, 4,4′-((1S,1′S)-((1,1′-(1,3-phenylenebis(methylene))bis(6-(trifluoromethyl)-2,3-dihydro-1H-imidazo[1,2-b]pyrazole-1,7-diyl-7-carbonyl))bis(azanediyl))bis(ethane-1,1-diyl))dibenzoic Acid]: 35.8 nM. The same measure for `C[C@H](NC(=O)c1c(C(F)(F)F)nn2c1N(Cc1cccc(CF)c1)CC2)c1ccc(C(=O)O)cc1` [Compound 67, (S)-4-(1-(1-(3-(fluoromethyl)benzyl)-6-(trifluoromethyl)-2,3-dihydro-1H-imidazo[1,2-b]pyrazole-7-carboxamido)ethyl)benzoic Acid]: 1.2 nM; for `C[C@H](NC(=O)c1c(C(F)(F)F)nn2c1N(Cc1ccc(I)c(C(F)(F)F)c1)CC2)c1ccc(C(=O)O)cc1` [Compound 68, (S)-4-(1-(1-(4-iodo-3-(trifluoromethyl)benzyl)-6-(trifluoromethyl)-2,3-dihydro-1H-imidazo[1,2-b]pyrazole-7-carboxamido)ethyl)benzoic acid]: 10.9 nM; for `C[C@H](NC(=O)c1c(C(F)(F)F)nn2c1N(Cc1cccc(I)c1)CC2)c1ccc(C(=O)O)cc1` [Compound 69, (S)-4-(1-(1-(3-iodobenzyl)-6-(trifluoromethyl)-2,3-dihydro-1H-imidazo[1,2-b]pyrazole-7-carboxamido)ethyl)benzoic acid]: 0.7 nM.

`C[C@H](NC(=O)c1c(C(F)(F)F)nn2c1N(Cc1ccccc1)CC2)c1ccc(C(=O)O)cc1` [Compound 70, (S)-4-(1-(1-benzyl-6-(trifluoromethyl)-2,3-dihydro-1H-imidazo[1,2-b]pyrazole-7-carboxamido)ethyl)benzoic acid] yielded an IC50 of 0.84 nM.

The compound `C[C@H](NC(=O)c1c(C(F)(F)F)nn2c1N(Cc1cccc(C(F)(F)F)c1)CC2)c1ccc(C(=O)NS(=O)(=O)c2ccc([N+](=O)[O-])cc2)cc1` [Compound 71, (S)—N-(1-(4-(((4-nitrophenyl)sulfonyl)carbamoyl)phenyl)ethyl)-6-(trifluoromethyl)-1-(3-(trifluoromethyl)benzyl)-2,3-dihydro-1H-imidazo[1,2-b]pyrazole-7-carboxamide] yielded an IC50 of 5.87 nM.

`C[C@H](NC(=O)c1c(C(F)(F)F)nn2c1N(Cc1cccc(C(F)(F)F)c1)CC2)c1ccc(C(=O)NS(=O)(=O)c2ccc(N)cc2)cc1` [Compound 72, (S)—N-(1-(4-(((4-aminophenyl)sulfonyl)carbamoyl)phenyl)ethyl)-6-(trifluoromethyl)-1-(3-(trifluoromethyl)benzyl)-2,3-dihydro-1H-imidazo[1,2-b]pyrazole-7-carboxamide] displayed an IC50 of 51.2 nM. This IC50 is about 8.7-fold higher than that of the compound before.

Compound `C[C@H](NC(=O)c1c(C(F)(F)F)nn2c1N(Cc1ccc(N)cc1)CC2)c1ccc(C(=O)O)cc1` [Compound 73, (S)-4-(1-(1-(4-aminobenzyl)-6-(trifluoromethyl)-2,3-dihydro-1H-imidazo[1,2-b]pyrazole-7-carboxamido)ethyl)benzoic Acid] yielded an IC50 of 1.49 nM.

`C[C@H](NC(=O)c1c(C(F)(F)F)nn2c1N(Cc1cccc(COCCF)c1)CC2)c1ccc(C(=O)O)cc1` [Compound 74, (S)-4-(1-(1-(3-((2-fluoroethoxy)methyl)benzyl)-6-(trifluoromethyl)-2,3-dihydro-1H-imidazo[1,2-b]pyrazole-7-carboxamido)ethyl)benzoic Acid] registered an IC50 of 28 nM. The same measure for `C[C@H](NC(=O)c1c(C(F)(F)F)nn2c1N(Cc1cccc(OCCF)c1)CC2)c1ccc(C(=O)O)cc1` [Compound 75, (S)-4-(1-(1-(3-(2-fluoroethoxy)benzyl)-6-(trifluoromethyl)-2,3-dihydro-1H-imidazo[1,2-b]pyrazole-7-carboxamido)ethyl)benzoic Acid]: 4.66 nM.
